For series [1], the system named is Homo sapiens. The series is described as follows: Antidiabetic activity in human T2DM patients assessed as reduction in HbA1c level at 50 mg, po for 24 weeks relative to control. In kind it is functional. Also on record: scale not given: the % may be the effect or the level left.
Series [2] concerns Homo sapiens. Briefly: Antidiabetic activity in human T2DM patients assessed as fasting blood glucose level at 50 mg, po for 24 weeks. In kind it is functional.
Series [3] concerns Homo sapiens. The series is described as follows: Antidiabetic activity in human T2DM patients assessed as reduction in body weight at 50 mg, po for 24 weeks. In kind it is functional.
Series [4] can be described thus: Elimination half life in human at 1 to 25 mg, po. In kind it is ADME. The note with it: in vivo, read-out: LambdaZ.
Series [5] can be described thus: Tmax in human at 5 mg, po. In kind it is ADME. The note with it: in vivo.
Series [6] concerns Homo sapiens. The series is described as follows: Antidiabetic activity in human T2DM patients assessed as reduction in HbA1c level at 25 mg, po for 12 weeks relative to control. In kind it is functional. Set-up: scale not given: the % may be the effect or the level left.
Series [7] is described as follows: Toxicity in human T2DM patients assessed as reduction in systolic blood pressure at 5 mg, po for 4 weeks. The note with it: in vivo, 672 h. In kind it is organism-based.
Series [8] is described as follows: Toxicity in human T2DM patients assessed as reduction in systolic blood pressure at 10 mg, po for 4 weeks. In kind it is organism-based. The note with it: in vivo, 672 h.
Series [9] concerns Homo sapiens. The series is described as follows: Antidiabetic activity in human T2DM patients assessed as reduction in HbA1c level at 20 mg, po for 24 weeks relative to control. In kind it is functional. Set-up: scale not given: the % may be the effect or the level left.
Series [10] has as its system Homo sapiens. The series is described as follows: Antidiabetic activity in human T2DM patients assessed as reduction in body weight at 20 mg, po for 24 weeks. In kind it is functional.
Series [11] is described as follows: Toxicity in human T2DM patients assessed as reduction in blood pressure at 20 mg, po for 24 weeks. The note with it: in vivo, 4032 h. In kind it is organism-based.
The nature of series [12]: Toxicity in human assessed as urinary tract infection at 200 to 400 mg, po for 52 weeks. In kind it is organism-based. The note with it: in vivo, 8736 h.
In series [13] the test system is Homo sapiens. Briefly: Antidiabetic activity in human T2DM patients assessed as reduction in HbA1c level at 10 mg, po relative to control. In kind it is functional. Also on record: scale not given: the % may be the effect or the level left.
Series [14] concerns Homo sapiens. Briefly: Antidiabetic activity in human T2DM patients assessed as reduction in HbA1c level at 25 mg, po relative to control. In kind it is functional. Set-up: scale not given: the % may be the effect or the level left.
Series [15] relates to Homo sapiens. The series is described as follows: Antidiabetic activity in human T2DM patients assessed as reduction in body weight at 10 to 25 mg, po. In kind it is functional.
Series [16] can be described thus: Toxicity in human T2DM patients assessed as reduction in systolic blood pressure at 25 mg, po. The note with it: in vivo.
Series [17] can be described thus: Toxicity in human T2DM patients assessed as reduction in diastolic blood pressure at 25 mg, po. The note with it: in vivo.
The nature of series [18]: Half life in human. In kind it is ADME.

`OC[C@H]1O[C@@H](c2ccc(F)c(Cc3cc4ccccc4s3)c2)[C@H](O)[C@@H](O)[C@@H]1O` [IPRAGLIFLOZIN]: the values for the Activity in series [1], in [2] and in [3] were 0.79%, 32.89 mg/dL and 1.1 kg, respectively.
For the molecule `CCOc1ccc(Cc2cc([C@@H]3S[C@H](CO)[C@@H](O)[C@H](O)[C@H]3O)c(OC)cc2C)cc1` [LUSEOGLIFLOZIN], the half-life in series [4] lay within 9.2 to 13.8 h.
Consider `CCOc1ccc(Cc2cc([C@]34OC[C@](CO)(O3)[C@@H](O)[C@H](O)[C@H]4O)ccc2Cl)cc1` [ERTUGLIFLOZIN], for which the Tmax in series [5] turned out to be 1 h. In addition, the Activity in series [6] was -0.72%; in [7], 2.59 to 2.86 mmHg; in series [8] it was 2.59 to 2.86 mmHg.
`CCc1ccc(Cc2ccc3c(c2)[C@]2(OC3)O[C@H](CO)[C@@H](O)[C@H](O)[C@H]2O)cc1` [TOFOGLIFLOZIN ANHYDROUS]: the figures for the Activity in [9], in series [10] and in series [11] were 1.017%, 2.9 kg and 2.1 mmHg, respectively.
With `CCOc1ccc(Cc2cc([C@@H]3O[C@H](SC)[C@@H](O)[C@H](O)[C@H]3O)ccc2Cl)cc1` [SOTAGLIFLOZIN], the Activity in series [12] lay in the range of 4.2 to 6.9%.
With `OC[C@H]1O[C@@H](c2ccc(Cl)c(Cc3ccc(O[C@@H]4CCOC4)cc3)c2)[C@H](O)[C@@H](O)[C@@H]1O`, the Activity in [13] is 0.929%; in series [14] it was 1.064%; in series [15], 1.85 kg; in series [16], 4.19 mmHg; in series [17] it was -1.04 mmHg. In series [18], this molecule showed a half-life of 1 h.

For the origin of these results see ChEMBL document CHEMBL4342422, “Synthetic strategy and SAR studies of C-glucoside heteroaryls as SGLT2 inhibitor: A review” (Eur J Med Chem, 2019).
